Source: the NIST ThermoML archive (doi:10.1016/j.jct.2006.06.002)
± gives the expanded uncertainty stated by the source.

Assay: refractive index (Na D-line) (dimensionless)
Conditions: 101.33 kPa, Liquid, Standard Abbe refractometry

**Q.** For c1ccccc1 [benzene], which refractive index (303.15 K) is on record?
**A.** 1.4954 ± 0.0009

**Q.** With CO [methanol] as the molecule, how does the refractive index (293.15 K) read?
**A.** 1.3288 ± 0.0009
